Experimental data as given in ChEMBL document CHEMBL4665705 (J Med Chem, 2020).
Values after ≈ are worked out from the molar mass of the structure shown.

What was measured:
[1] = target: Bromodomain-containing protein 4 (Homo sapiens, UniProt O60885, Y97A)
[2] = target: Bromodomain-containing protein 4 (Homo sapiens, UniProt O60885, Y390A)
[3] = buffer, pH 7.4
physchem = settings: phosphate buffered saline, pH 7.4
in vitro = settings: PAMPA, pH 7.4
[4] = Genotoxicity in Salmonella typhimurium TA1535 in absence of S9 fraction by Ames test; format: toxicity; settings: salmonella enterica subsp. enterica serovar typhimurium
[5] = Genotoxicity in Salmonella typhimurium TA1537 in absence of S9 fraction by Ames test; format: toxicity; settings: salmonella enterica subsp. enterica serovar typhimurium
[6] = Genotoxicity in Salmonella typhimurium TA98 in absence of S9 fraction by Ames test; format: toxicity; settings: salmonella enterica subsp. enterica serovar typhimurium
[7] = Genotoxicity in Salmonella typhimurium TA100 in absence of S9 fraction by Ames test; format: toxicity; settings: salmonella enterica subsp. enterica serovar typhimurium
[8] = Genotoxicity in Escherichia coli WP2uvrA in absence of S9 fraction by Ames test; format: toxicity
[9] = Genotoxicity in Salmonella typhimurium TA1535 in presence of S9 fraction by Ames test; format: toxicity, subcellular; settings: salmonella enterica subsp. enterica serovar typhimurium
[10] = Genotoxicity in Salmonella typhimurium TA1537 in presence of S9 fraction by Ames test; format: toxicity, subcellular; settings: salmonella enterica subsp. enterica serovar typhimurium
[11] = Genotoxicity in Salmonella typhimurium TA98 in presence of S9 fraction by Ames test; format: toxicity, subcellular; settings: salmonella enterica subsp. enterica serovar typhimurium
[12] = Genotoxicity in Salmonella typhimurium TA100 in presence of S9 fraction by Ames test; format: toxicity, subcellular; settings: salmonella enterica subsp. enterica serovar typhimurium
[13] = Genotoxicity in Escherichia coli WP2uvrA in presence of S9 fraction by Ames test; format: toxicity, subcellular
[14] = Drug metabolism in human liver S9 fraction assessed as deacetylation to aniline at 10 uM incubated for 120 mins by FTMS analysis; format: ADME, subcellular; settings: s9, 2 h
[15] = Drug metabolism in rat liver S9 fraction assessed as deacetylation to aniline at 10 uM incubated for 120 mins by FTMS analysis; format: ADME, subcellular; settings: s9, 2 h

Row | SMILES | IC50 [1] [µM] | IC50 [2] [µM] | CHI [3] | solubility kinetic (physchem) [µg/mL] | Papp (in vitro) [×10⁻⁶ cm/s] | further results
1 | CCNC(=O)c1cc(F)c(NC(C)=O)c(OCc2ccccc2)c1 | 1 | > 50.1 | 3.1 | 18 (≈ 54.5 µM) | 11 | 
2 | C[C@H](Oc1cc(C(=O)N[C@H]2CC[C@H](O)CC2)ccc1N)c1ccccc1 |  |  |  |  |  | Activity [4]: Non-Toxic; Activity [5]: Non-Toxic; Activity [6]: Non-Toxic; Activity [7]: Non-Toxic; Activity [8]: Non-Toxic; Activity [9]: Non-Toxic; Activity [10]: Non-Toxic; Activity [11]: Non-Toxic; Activity [12]: Non-Toxic; Activity [13]: Non-Toxic
3 | CCNC(=O)c1ccc(NC(C)=O)c(OCc2ccccc2)c1 | 6.31 | > 50.1 | 3.5 | 143 (≈ 458 µM) | 32 | 
4 | CC(=O)Nc1ccc(C(=O)NCCc2cnc[nH]2)cc1OCc1ccccc1 |  |  | 2.2 | 125 (≈ 330 µM) | 0.8 | 
5 | CC(=O)Nc1ccc(C(=O)NCCCN)cc1OCc1cccnc1 | 15.8 | > 50.1 | 0.2 | 130 (≈ 380 µM) | < 0.3 | 
6 | CC(=O)Nc1ccc(C(=O)NCCCN)cc1OCc1ccc(Cl)cc1 | 2 | 25.1 | 2.2 | 108 (≈ 287 µM) | < 0.3 | 
7 | CC(=O)Nc1ccc(C(=O)NCCCN)cc1OCc1ccc(C(C)C)cc1 |  |  | 3.1 | 114 (≈ 297 µM) | 0.77 | 
8 | CC(=O)Nc1ccc(C(=O)NCCCN)cc1OCc1ccc(C)cc1 | 2 | 31.6 | 2 | 114 (≈ 321 µM) | 0.65 | 
9 | CC(=O)Nc1ccc(C(=O)N[C@H]2CC[C@H](O)CC2)cc1O[C@@H](C)c1ccccc1 | 0.158 | 39.8 | 3.1 | 170 (≈ 429 µM) | 9.3 | 
10 | CC(=O)Nc1ccc(C(=O)NC2CCOCC2)cc1O[C@@H](C)c1ccccc1 | 0.251 | 31.6 | 3.7 | 215 (≈ 562 µM) | 34 | Drug metabolism [14]: Metabolite_Detected; Drug metabolism [15]: Metabolite_Detected
11 | COc1ccc(COc2cc(C(=O)NCCCN)ccc2NC(C)=O)cc1 | 2.51 | 39.8 | 1.3 | 114 (≈ 307 µM) | < 0.3 | 
12 | CC(=O)Nc1ccc(C(=O)NCCCN)cc1OCc1ccccc1 | 1.58 | 31.6 | 1.6 | 123 (≈ 360 µM) | < 0.3 | 
13 | CC(=O)Nc1ccc(C(=O)NCCCN)cc1OCc1ccccn1 | 10 | > 50.1 | 0.3 | 80 (≈ 234 µM) | < 0.3 | 
14 | CC(=O)Nc1ccc(C(=O)NCCCO)cc1OCc1ccccc1 | 3.98 | > 50.1 | 2.4 | 109 (≈ 318 µM) | 9.4 | 
15 | Nc1c(O)cc(C(=O)O)cc1F |  |  |  |  |  | Activity [4]: Non-Toxic; Activity [5]: Non-Toxic; Activity [6]: Non-Toxic; Activity [7]: Non-Toxic; Activity [8]: Toxic; Activity [9]: Non-Toxic; Activity [10]: Non-Toxic; Activity [11]: Non-Toxic; Activity [12]: Non-Toxic; Activity [13]: Toxic
16 | CC(=O)Nc1ccc(C(=O)NCCCN)cc1OC(C)c1ccccc1 (racemic) | 0.501 | 20 | 1.7 | 159 (≈ 447 µM) | < 0.3 | 

Row | SMILES | IC50 [1] [µM] | IC50 [2] [µM] | CHI [3] | solubility kinetic (physchem) [µg/mL] | Papp (in vitro) [×10⁻⁶ cm/s] | further results
17 | CC(=O)Nc1ccc(C(=O)NCCCN)cc1OCc1cccc(Cl)c1 |  |  | 2.1 | 96 (≈ 255 µM) | 1.1 | 
18 | CC(=O)Nc1ccc(C(=O)N[C@H]2CC[C@H](O)CC2)cc1OCc1ccccc1 | 1.26 | > 50.1 | 2.7 | 174 (≈ 455 µM) | 7.9 | 
19 | CCNC(=O)c1ccc(NC(C)=O)c(OCc2ccccc2)c1F | 20 | > 50.1 | 2.5 | 119 (≈ 360 µM) | 46 | 
20 | CC(=O)Nc1ccc(C(=O)NCCO)cc1OCc1ccccc1 | 5.01 | > 50.1 | 2.3 | 162 (≈ 493 µM) | 6.8 | 
21 | CC(=O)Nc1ccc(C(=O)NC2CCOCC2)cc1OCc1ccccc1 | 2 | > 50.1 | 3.3 | 155 (≈ 421 µM) | 19 | 
22 | CC(=O)Nc1ccc(C(=O)NCCCN)cc1OCC1CCOCC1 | > 50.1 | > 50.1 | 0.4 | 144 (≈ 412 µM) | < 0.3 | 
23 | CCNC(=O)c1cc(OCc2ccccc2)c(NC(C)=O)cc1F | 1.58 | > 50.1 | 4.4 | 159 (≈ 481 µM) | 67 | 
24 | CC(=O)Nc1ccc(C(=O)NCCCN)cc1OCc1ccccc1Cl | 2.51 | 39.8 | 1.9 | 124 (≈ 330 µM) | 1.5 | 
25 | CC(=O)Nc1ccc(C(=O)NCCC2CCOCC2)cc1OCc1ccccc1 | 1.58 | > 50.1 | 4 | 200 (≈ 504 µM) | 10.4 | 
26 | CC(=O)Nc1ccccc1OCc1ccccc1 |  |  | 4.9 | 113 (≈ 468 µM) | 78 | 
27 | CC(=O)Nc1ccc(C(=O)NCCCN)cc1OCc1ccncc1 |  |  | 0.1 | 112 (≈ 327 µM) | 0.3 | 
28 | CC(=O)Nc1ccc(C(=O)NCC2CCNCC2)cc1OCc1ccccc1 | 0.794 | > 50.1 | 1.7 | < 3 | 17 | 
29 | CC(=O)Nc1ccc(C(=O)NCC2CCOCC2)cc1OCc1ccccc1 | 2.51 | > 50.1 | 3.5 | 174 (≈ 455 µM) | 19 | 
30 | CC(=O)Nc1ccc(C(=O)NCCCN)cc1OCc1ccc(C(N)=O)cc1 | 10 | > 50.1 | 0 | 151 (≈ 393 µM) | < 0.3 | 
31 | CC(=O)Nc1ccc(C(=O)NC2CCOCC2)cc1O[C@H](C)c1ccccc1 | 12.6 | > 50.1 | 3.8 | 159 (≈ 416 µM) | 30 | 
